Measured values from the NIST ThermoML archive (doi:10.1016/j.jct.2005.03.006).
Numbers after ± are expanded uncertainties.

Conditions: Liquid, Buoyancy - hydrostatic balance

CCc1ccccc1 [ethylbenzene]
mass density [kg/m3]
Conditions	292.25 K	313.45 K	336.55 K	358.81 K	382.95 K	408.05 K	434.45 K	461.85 K	490.15 K
100 kPa	867 ± 10	849.1 ± 10	828.7 ± 10	808.4 ± 10	–	–	–	–	–
5000 kPa	870.8 ± 10	853.1 ± 10	833.6 ± 10	814.5 ± 10	793 ± 10	770.4 ± 10	746 ± 10	718.6 ± 10	687 ± 10
9900 kPa	874 ± 10	–	838.5 ± 10	820 ± 10	799 ± 10	777.3 ± 10	754.4 ± 10	728.8 ± 10	700 ± 10
19700 kPa	881.3 ± 10	864.4 ± 10	845.8 ± 10	827.6 ± 10	808.1 ± 10	788.5 ± 10	768.1 ± 10	746.2 ± 10	720.9 ± 10
29500 kPa	887.1 ± 10	871.4 ± 10	854 ± 10	836.8 ± 10	818.2 ± 10	799.7 ± 10	780.5 ± 10	760 ± 10	737.2 ± 10
39300 kPa	893 ± 10	877.6 ± 10	860.9 ± 10	844.8 ± 10	827.1 ± 10	809.5 ± 10	791 ± 10	771.7 ± 10	750.7 ± 10
49100 kPa	898.5 ± 10	883.6 ± 10	867.8 ± 10	852.4 ± 10	835.1 ± 10	817.9 ± 10	800.4 ± 10	782.3 ± 10	762.9 ± 10
58900 kPa	903.8 ± 10	889.4 ± 10	873.6 ± 10	858.6 ± 10	842.5 ± 10	826 ± 10	808.6 ± 10	791 ± 10	773.2 ± 10

CO [methanol]
mass density [kg/m3]
Conditions	298.15 K	323.15 K	348.15 K	373.15 K	398.15 K	423.15 K	448.15 K	473.15 K	498.15 K
100 kPa	792.6 ± 10	770.3 ± 10	–	–	–	–	–	–	–
5000 kPa	796.2 ± 10	774.2 ± 10	748.9 ± 10	721.1 ± 10	690 ± 10	652.8 ± 10	610.4 ± 10	553.4 ± 10	–
9900 kPa	801 ± 10	778.2 ± 10	753.9 ± 10	727.7 ± 10	697.6 ± 10	665.2 ± 10	628.9 ± 10	585 ± 10	525 ± 10
19700 kPa	808.4 ± 10	787 ± 10	764.1 ± 10	739.3 ± 10	712.8 ± 10	683.6 ± 10	652.4 ± 10	620.2 ± 10	584.8 ± 10
29500 kPa	816 ± 10	795 ± 10	773.1 ± 10	750.4 ± 10	725.4 ± 10	698.8 ± 10	670.8 ± 10	642 ± 10	613.4 ± 10
39300 kPa	823.8 ± 10	803.4 ± 10	782.6 ± 10	760.2 ± 10	736 ± 10	710.8 ± 10	685.6 ± 10	660.6 ± 10	636 ± 10
49100 kPa	830 ± 10	811 ± 10	790.9 ± 10	769.6 ± 10	747.2 ± 10	723.9 ± 10	700 ± 10	677.2 ± 10	655 ± 10
58900 kPa	836.3 ± 10	818.2 ± 10	798.9 ± 10	778.2 ± 10	757 ± 10	735 ± 10	713 ± 10	691.2 ± 10	670 ± 10
